Test results reported in ChEMBL document CHEMBL5096175, “An insight into the medicinal attributes of berberine derivatives: A review” (Bioorg Med Chem, 2021).
Values after ≈ are worked out from the molar mass of the structure shown.

How the values were obtained:
[1] = biological target: Chitinase B (Serratia marcescens, UniProt P11797); assay: Inhibition of Serratia marcescens chitinase B expressed in Escherichia coli BL21(DE3) cells using MU-(GlcNAc)2 as a substrate assessed as inhibition constant incubated for 25 mins by dixon plot analysis
[2] = system: Staphylococcus aureus; assay: Antibacterial activity against methicillin-resistant Staphylococcus aureus assessed as inhibition of bacterial growth incubated for 24 hrs by CLSI based broth microdilution method; type: functional
[3] = system: Candida parapsilosis; assay: Antifungal activity against Candida parapsilosis ATCC 22019 assessed as inhibition of fungal growth incubated for 24 hrs; type: functional; conditions: Lodderomyces parapsilosis
[4] = system: Candida albicans; assay: Antifungal activity against Candida albicans ATCC 90023 assessed as inhibition of fungal growth incubated for 24 hrs; type: functional
[5] = system: Pseudomonas aeruginosa; assay: Antibacterial activity against Pseudomonas aeruginosa 27853 assessed as inhibition of bacterial growth incubated for 24 hrs by CLSI based broth microdilution method; type: functional
[6] = system: Escherichia coli; assay: Antibacterial activity against Escherichia coli assessed as inhibition of bacterial growth incubated for 24 hrs by micro broth dilution method; type: functional
[7] = Antioxidant activity assessed as ABTS radical scavenging activity incubated for 10 mins by UV spectrophotometeric analysis; type: functional
[8] = Antioxidant activity assessed as DPPH radical scavenging activity measured after 25 mins by UV visible spectrophotometeric analysis; type: functional
[9] = system: HeLa; assay: Anticancer activity against human HeLa cells assessed as cell growth inhibition incubated for 48 hrs by SRB assay; type: functional, cell-based
[10] = system: Ca-Ski; assay: Anticancer activity against human Ca-Ski cells assessed as cell growth inhibition incubated for 48 hrs by SRB assay; type: functional, cell-based
[11] = system: Shigella dysenteriae; assay: Antibacterial activity against Shigella dysenteriae CICC 23829 assessed as inhibition of bacterial growth incubated for 24 hrs by broth microdilution method; type: functional
[12] = system: Staphylococcus aureus; assay: Antibacterial activity against methicillin-resistant Staphylococcus aureus ATCC 700699 assessed as inhibition of bacterial growth incubated for 24 hrs by broth microdilution method; type: functional
[13] = system: Pseudomonas aeruginosa; assay: Antibacterial activity against Pseudomonas aeruginosa CICC 10419 assessed as inhibition of bacterial growth incubated for 24 hrs by broth microdilution method; type: functional
[14] = system: Streptococcus pyogenes; assay: Antibacterial activity against Streptococcus pyogenes CICC 10356 assessed as inhibition of bacterial growth incubated for 24 hrs by broth microdilution method; type: functional
[15] = system: Staphylococcus aureus; assay: Antibacterial activity against Staphylococcus aureus CICC 23656 assessed as inhibition of bacterial growth incubated for 24 hrs by broth microdilution method; type: functional
[16] = system: Clostridium perfringens; assay: Antibacterial activity against Clostridium perfringens CICC 22949 assessed as inhibition of bacterial growth incubated for 24 hrs by broth microdilution method; type: functional
[17] = system: Escherichia coli; assay: Antibacterial activity against Escherichia coli CICC 10389 assessed as inhibition of bacterial growth incubated for 24 hrs by broth microdilution method; type: functional
[18] = system: Salmonella enteritidis; assay: Antibacterial activity against Salmonella enteritidis CICC 24119 assessed as inhibition of bacterial growth incubated for 24 hrs by broth microdilution method; type: functional, Salmonella enterica subsp. enterica serovar Enteritidis; conditions: Salmonella enterica
[19] = system: A549; assay: Cytotoxicity against human A549 cells assessed as inhibition of cell proliferation incubated for 24 hrs by MTT assay; type: functional, cell-based; conditions: A549, 24 h
[20] = system: PC-12; assay: Cytotoxicity against […] cells assessed as inhibition of cell proliferation incubated for 24 hrs by MTT assay; type: functional, cell-based; conditions: Rattus norvegicus, PC-12, 24 h
[21] = system: MCF7; assay: Cytotoxicity against human MCF7 cells assessed as inhibition of cell proliferation incubated for 24 hrs by MTT assay; type: functional, cell-based; conditions: MCF7, 24 h
[22] = system: HepG2; assay: Cytotoxicity against human HepG2 cells assessed as inhibition of cell proliferation incubated for 24 hrs by MTT assay; type: functional, cell-based; conditions: HepG2, 24 h
[23] = system: HeLa; assay: Cytotoxicity against human HeLa cells assessed as inhibition of cell proliferation incubated for 24 hrs by MTT assay; type: functional, cell-based
[24] = biological target: Histone acetyltransferase p300 (Homo sapiens, UniProt Q09472); assay: Inhibition of N-terminal His/GST-tagged recombinant human p300 HAT domain (965 to 1810 residues) expressed in Sf9 insect cells using isotope labelled 3H-Ac-CoA as substrate incubated for 60 mins by microbeta counter based analysis
[25] = system: Brucella abortus; assay: Antibacterial activity against Brucella abortus by serial dilution method; type: functional
[26] = system: Vibrio cholerae; assay: Antibacterial activity against Vibrio cholerae by serial dilution method; type: functional
[27] = system: Influenza A virus; assay: Antiviral activity against influenza virus A A/PR/8/34 infected in MDCK cells assessed as inhibition of virus-induced cytopathic effect measured after 48 hrs by SRB bioassay; type: functional, organism-based; conditions: A/PR/8/34, MDCK
[28] = Therapeutic index, ratio of CC50 for cytotoxicity against MDCK cells to IC50 for antiviral activity against influenza virus A A/PR/8/34; type: toxicity, cell-based; conditions: dog, read-out: TI
[29] = Cytotoxicity against MDCK cells incubated for 48 hrs by SRB bioassay; type: toxicity, cell-based, Canis lupus familiaris; conditions: dog
[30] = system: HEK-293T; assay: Antiinflammatory activity against HEK-293T cells assessed as inhibition of TNF-alpha induced NF-kappaB activation at 5 uM preincubated for 2 hrs followed by TNFalpha stimulation for 6 hrs by dual-luciferase reporter assay relative to control; type: functional; conditions: Homo sapiens, time 8 hrs
[31] = system: HCT-8; assay: Antiproliferative activity against human HCT-8 cells assessed as inhibition of cell growth incubated for 72 hrs by MTT assay; type: functional, cell-based; conditions: HCT-8, 72 h
[32] = system: A549; assay: Antiproliferative activity against human A549 cells assessed as inhibition of cell growth incubated for 72 hrs by MTT assay; type: functional, cell-based; conditions: A549, 72 h
[33] = system: HeLa; assay: Antiproliferative activity against human HeLa cells assessed as inhibition of cell growth incubated for 72 hrs by MTT assay; type: functional, cell-based
[34] = system: Bel-7402; assay: Antiproliferative activity against human Bel-7402 cells assessed as inhibition of cell growth incubated for 72 hrs by MTT assay; type: functional, cell-based; conditions: Bel-7402, 72 h
[35] = biological target: Acetylcholinesterase (Homo sapiens, UniProt P22303); assay: Inhibition of acetylcholinesterase (unknown origin) using acetylthiocholine iodide as substrate incubated for 10 mins by Ellman's colorimetric method
[36] = system: MCF7; assay: Antiproliferative activity against human MCF7 cells incubated for 24 hrs by MTT assay; type: functional, cell-based; conditions: MCF7, 24 h

Sequence of Chitinase B (P11797 whole entry): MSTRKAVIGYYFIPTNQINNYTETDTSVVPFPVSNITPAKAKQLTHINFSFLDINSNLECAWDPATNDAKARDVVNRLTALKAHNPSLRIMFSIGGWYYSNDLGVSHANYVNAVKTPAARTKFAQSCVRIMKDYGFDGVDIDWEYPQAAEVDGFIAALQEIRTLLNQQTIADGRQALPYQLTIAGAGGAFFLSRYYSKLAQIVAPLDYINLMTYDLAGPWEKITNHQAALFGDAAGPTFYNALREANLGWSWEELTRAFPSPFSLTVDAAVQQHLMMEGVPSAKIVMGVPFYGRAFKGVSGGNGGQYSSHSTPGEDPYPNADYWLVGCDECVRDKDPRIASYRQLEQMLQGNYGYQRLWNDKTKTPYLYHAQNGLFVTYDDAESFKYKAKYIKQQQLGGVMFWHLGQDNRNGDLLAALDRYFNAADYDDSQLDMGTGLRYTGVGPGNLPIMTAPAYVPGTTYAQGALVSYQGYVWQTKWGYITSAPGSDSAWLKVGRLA
Sequence of Histone acetyltransferase p300 (Q09472 whole entry, the tested form may be a part): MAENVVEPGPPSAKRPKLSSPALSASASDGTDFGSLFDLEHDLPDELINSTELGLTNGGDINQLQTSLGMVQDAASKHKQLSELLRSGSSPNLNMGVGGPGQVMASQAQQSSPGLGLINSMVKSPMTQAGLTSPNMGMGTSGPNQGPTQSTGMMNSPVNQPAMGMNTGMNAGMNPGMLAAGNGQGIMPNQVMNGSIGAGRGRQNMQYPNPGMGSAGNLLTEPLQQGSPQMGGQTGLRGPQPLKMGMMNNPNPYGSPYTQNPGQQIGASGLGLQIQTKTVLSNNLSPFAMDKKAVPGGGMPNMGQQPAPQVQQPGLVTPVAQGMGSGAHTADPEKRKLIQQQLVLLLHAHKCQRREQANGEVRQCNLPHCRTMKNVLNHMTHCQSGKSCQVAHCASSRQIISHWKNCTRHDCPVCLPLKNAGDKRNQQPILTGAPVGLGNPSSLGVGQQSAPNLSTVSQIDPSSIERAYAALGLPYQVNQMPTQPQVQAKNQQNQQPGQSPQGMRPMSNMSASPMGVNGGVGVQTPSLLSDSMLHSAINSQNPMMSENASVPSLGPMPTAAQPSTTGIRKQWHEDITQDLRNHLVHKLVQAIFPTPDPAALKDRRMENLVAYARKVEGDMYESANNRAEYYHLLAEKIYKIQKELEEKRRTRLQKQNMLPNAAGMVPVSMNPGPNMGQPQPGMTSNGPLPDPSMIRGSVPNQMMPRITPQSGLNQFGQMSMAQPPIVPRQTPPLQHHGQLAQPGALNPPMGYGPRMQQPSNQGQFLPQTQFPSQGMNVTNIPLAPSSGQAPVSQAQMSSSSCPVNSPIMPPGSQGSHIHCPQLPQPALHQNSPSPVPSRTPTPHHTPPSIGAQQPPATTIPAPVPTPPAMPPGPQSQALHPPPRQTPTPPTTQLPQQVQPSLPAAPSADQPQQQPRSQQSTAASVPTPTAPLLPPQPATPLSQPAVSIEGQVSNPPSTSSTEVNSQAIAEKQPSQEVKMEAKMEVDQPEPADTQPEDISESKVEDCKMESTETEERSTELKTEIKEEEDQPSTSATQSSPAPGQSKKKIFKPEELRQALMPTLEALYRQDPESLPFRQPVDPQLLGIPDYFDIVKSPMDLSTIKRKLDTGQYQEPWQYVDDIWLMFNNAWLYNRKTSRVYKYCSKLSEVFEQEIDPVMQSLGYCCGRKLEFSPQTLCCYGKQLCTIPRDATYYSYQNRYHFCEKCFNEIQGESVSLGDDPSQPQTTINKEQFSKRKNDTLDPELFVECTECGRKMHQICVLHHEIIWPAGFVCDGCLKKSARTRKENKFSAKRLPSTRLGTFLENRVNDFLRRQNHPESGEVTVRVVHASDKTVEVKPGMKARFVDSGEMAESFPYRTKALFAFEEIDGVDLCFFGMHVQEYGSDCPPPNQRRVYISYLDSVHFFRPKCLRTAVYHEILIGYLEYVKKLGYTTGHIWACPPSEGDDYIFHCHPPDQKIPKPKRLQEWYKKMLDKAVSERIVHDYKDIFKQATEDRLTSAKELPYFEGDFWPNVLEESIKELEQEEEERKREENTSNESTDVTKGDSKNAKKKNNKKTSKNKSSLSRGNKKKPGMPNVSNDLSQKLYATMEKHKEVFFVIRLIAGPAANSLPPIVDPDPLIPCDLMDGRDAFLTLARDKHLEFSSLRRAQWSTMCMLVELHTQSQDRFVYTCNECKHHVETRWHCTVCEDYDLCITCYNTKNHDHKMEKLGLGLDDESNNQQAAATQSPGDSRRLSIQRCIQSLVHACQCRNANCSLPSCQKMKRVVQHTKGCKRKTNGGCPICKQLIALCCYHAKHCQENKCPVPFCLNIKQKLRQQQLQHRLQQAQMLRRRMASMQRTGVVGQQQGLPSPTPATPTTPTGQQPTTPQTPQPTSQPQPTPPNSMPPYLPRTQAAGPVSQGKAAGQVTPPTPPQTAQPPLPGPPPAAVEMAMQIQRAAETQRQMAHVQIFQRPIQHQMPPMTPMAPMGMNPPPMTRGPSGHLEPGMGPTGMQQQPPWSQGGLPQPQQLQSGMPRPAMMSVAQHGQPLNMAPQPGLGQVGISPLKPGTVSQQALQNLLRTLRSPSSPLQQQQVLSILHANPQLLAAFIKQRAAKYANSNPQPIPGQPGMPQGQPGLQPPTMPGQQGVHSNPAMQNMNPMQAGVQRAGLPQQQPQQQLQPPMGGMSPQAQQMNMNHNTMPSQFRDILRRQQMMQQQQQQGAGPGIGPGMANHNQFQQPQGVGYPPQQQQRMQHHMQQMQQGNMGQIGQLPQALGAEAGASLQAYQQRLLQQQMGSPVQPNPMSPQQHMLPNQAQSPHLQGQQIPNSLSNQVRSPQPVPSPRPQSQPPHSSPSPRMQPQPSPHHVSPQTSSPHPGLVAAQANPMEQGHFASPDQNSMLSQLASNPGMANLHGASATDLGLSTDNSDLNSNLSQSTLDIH
Sequence of Acetylcholinesterase (P22303 whole entry): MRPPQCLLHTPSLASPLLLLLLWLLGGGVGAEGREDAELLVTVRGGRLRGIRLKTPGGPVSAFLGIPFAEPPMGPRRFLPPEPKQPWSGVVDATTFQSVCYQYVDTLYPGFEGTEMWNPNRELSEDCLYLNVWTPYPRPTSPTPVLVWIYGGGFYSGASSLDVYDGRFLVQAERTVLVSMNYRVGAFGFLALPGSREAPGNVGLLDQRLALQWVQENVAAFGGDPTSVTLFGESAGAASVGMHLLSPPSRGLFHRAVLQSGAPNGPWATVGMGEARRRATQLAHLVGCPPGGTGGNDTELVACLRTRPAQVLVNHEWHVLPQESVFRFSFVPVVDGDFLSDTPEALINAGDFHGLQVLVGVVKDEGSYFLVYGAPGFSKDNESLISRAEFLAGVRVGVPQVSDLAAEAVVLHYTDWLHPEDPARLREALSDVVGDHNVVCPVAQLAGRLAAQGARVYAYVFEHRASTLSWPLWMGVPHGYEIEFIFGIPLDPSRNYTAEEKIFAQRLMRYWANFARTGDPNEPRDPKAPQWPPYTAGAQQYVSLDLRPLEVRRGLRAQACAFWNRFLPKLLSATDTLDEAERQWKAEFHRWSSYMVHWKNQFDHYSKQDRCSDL

COc1ccc2cc3[n+](cc2c1OC(=O)c1ccccc1)CCc1cc2c(cc1-3)OCO2
Ki [1]: 0.15 µM

CCCCOc1c(OC)cc(/C=C2\SC(=O)NC2=O)c2c1CN1CCc3cc4c(cc3C1C2)OCO4 (stereo not given)
MIC [2]: 8 µM (≈ 4.07 µg/mL)
MIC [3]: 8 µM (≈ 4.07 µg/mL)
MIC [4]: 16 µM (≈ 8.14 µg/mL)
MIC [5]: 8 µM (≈ 4.07 µg/mL)

COc1cc(/C=C(\C#N)n2cc([N+](=O)[O-])nc2C)c2c(c1OCc1ccccc1F)CN1CCc3cc4c(cc3C1C2)OCO4 (stereo not given)
MIC [6]: 3 µM (≈ 1.83 µg/mL)

COc1ccc2cc3[n+](cc2c1OCCCCCn1c(C)cc2ccccc21)CCc1cc2c(cc1-3)OCO2.[Cl-]
IC50 [7]: 9.09 µM
IC50 [8]: 19.9 µM
IC50 [9]: 7.21 µg/mL
IC50 [10]: 6.32 µg/mL

COc1ccc2cc3[n+](cc2c1OCc1ccc(C(F)(F)F)cc1)CCc1cc2c(cc1-3)OCO2
MIC [11]: 0.82 µM
MIC [12]: 0.82 µM
MIC [13]: 0.82 µM
MIC [14]: 0.82 µM
MIC [15]: 0.82 µM
MIC [16]: 0.82 µM
MIC [17]: 0.82 µM
MIC [18]: 0.82 µM

CCCCCC/C=C\C/C=C/C(=O)NCCCCCCOc1c(OC)ccc2cc3[n+](cc12)CCc1cc2c(cc1-3)OCO2
IC50 [19]: 3.25 µM
IC50 [20]: 3.77 µM
IC50 [21]: 3.91 µM
IC50 [22]: 4.42 µM
IC50 [23]: 3.82 µM

COc1cc2cc3[n+](cc2cc1OC)CCCc1cc2c(cc1-3)OCO2
IC50 [24]: 1.8 µM

COc1cc(C=C(C#N)C#N)c2cc3[n+](cc2c1O)CCc1cc2c(cc1-3)OCO2.[Cl-]
MIC [25]: 64 µg/mL
MIC [26]: 64 µg/mL

COc1ccc(N2CCN(CCCCCOc3c(OC)ccc4cc5[n+](cc34)CCc3cc4c(cc3-5)OCO4)CC2)c(OC)c1.[Cl-]
IC50 [27]: 35.2 µg/mL
selectivity ratio [28]: 111
CC50 at 48 h [29]: 3890 µg/mL

COc1ccc2cc3[n+](cc2c1OS(=O)(=O)c1ccc(C(F)(F)F)cc1)CCc1cc2c(cc1-3)OCO2
inhibition at 5 µM [30]: > 90%

COCCCCC(=O)Oc1c(OC)ccc2cc3[n+](cc12)CCc1cc2c(cc1-3)OCO2
Ki [1]: 0.15 µM

CCCCCN(CCCCC)c1cc(OC)c(OC)c2c1CC1c3cc4c(cc3CCN1C2)OCO4 (stereo not given)
IC50 [31]: 9.74 µM
IC50 [32]: 9.74 µM
IC50 [33]: 9.74 µM
IC50 [34]: 9.74 µM

COc1ccc2cc3[n+](cc2c1OC(=O)C1(C)CCCCC1)CCc1cc2c(cc1-3)OCO2
inhibition at 5 µM [30]: > 90%

Oc1cc2c(cc1O)-c1cc3ccc(O)c(O)c3c[n+]1CC2
IC50 [35]: 2.3 µM

COc1cc(CC2C(=O)C(C)C(=O)C(C)C2=O)c2cc3[n+](cc2c1O)CCc1cc2c(cc1-3)OCO2.[Cl-] (stereo not given)
MIC [25]: 64 µg/mL
MIC [26]: 64 µg/mL

CCCCCCCCCOc1c(OC)ccc2cc3[n+](cc12)CCc1cc2c(cc1-3)OCO2
IC50 [36]: 4.87 µM
